Measurements as given in patent US5462952A, “Fenamate 1,3,4-thiadiazoles and 1,3,4-oxadiazoles as antiinflammatory agents” (Warner-Lambert Company, priority 1993, dated 1995).
Structures can show the parent of a compound that is named as a salt. Where two headings read alike, the source gives them in different places. Values belong to the compound of their own block, whether it stands above or below them.

Columns and labels:
[1] = molecular target: T1, 5-Lipoxygenase (Rattus norvegicus, UniProt P12527); assay: ARBL whole cell 5-lipoxygenase assay (LTB4 formation in RBL-1 cells, A23187-stimulated); assay type: cell-based; parameters: key to ARBL, activity at the screening dose: Not active at the screening dose; conditions: for ARBL, activity at the screening dose: Table 2, screening dose, class symbol N; for IC50: Table 2; for inhibition at 10 µM: Table 2, @ 10 μM
T1 construct: host or cells: RBL-1 (rat basophilic leukemia)
T1 sequence (P12527 1-673): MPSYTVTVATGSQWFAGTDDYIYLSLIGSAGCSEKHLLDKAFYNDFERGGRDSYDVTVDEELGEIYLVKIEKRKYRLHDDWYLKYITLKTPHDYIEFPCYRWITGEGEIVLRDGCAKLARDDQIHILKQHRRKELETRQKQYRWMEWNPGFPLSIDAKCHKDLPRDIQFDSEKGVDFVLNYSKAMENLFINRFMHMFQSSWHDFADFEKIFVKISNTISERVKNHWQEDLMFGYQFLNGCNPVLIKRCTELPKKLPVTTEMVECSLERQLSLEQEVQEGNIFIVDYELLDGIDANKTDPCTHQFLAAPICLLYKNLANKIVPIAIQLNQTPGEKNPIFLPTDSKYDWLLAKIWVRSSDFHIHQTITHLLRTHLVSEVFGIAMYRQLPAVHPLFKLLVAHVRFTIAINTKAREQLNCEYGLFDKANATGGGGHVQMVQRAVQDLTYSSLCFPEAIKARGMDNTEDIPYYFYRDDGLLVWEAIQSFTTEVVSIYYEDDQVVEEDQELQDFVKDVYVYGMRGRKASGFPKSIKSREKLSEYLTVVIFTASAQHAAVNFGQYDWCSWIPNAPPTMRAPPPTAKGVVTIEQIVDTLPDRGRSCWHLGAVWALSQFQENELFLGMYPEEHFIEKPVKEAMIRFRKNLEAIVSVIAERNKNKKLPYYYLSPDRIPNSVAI
Protocol: (§1) The rat basophilic leukemia cell line (RBL-1) was obtained from the American Type Culture Collection (Rockville, Md.).
(§2) Radioimmunoassay (RIA) kits of LTB4 and PGF2α were obtained from Amersham (Arlington Heights, Ill.) and Seragen (Boston, Mass.), respectively.
(§3) RBL-1 cells are grown in suspension culture in Eagle's minimum essential medium supplemented with 12% fetal bovine serum at 37° C. in an incubator supplied with air-5% carbon dioxide. Cells are harvested by centrifugation. They are washed with cold phosphate buffered saline pH 7.4 (PBS; NaCl, 7.1 g; Na2 HPO4, 1.15 g; KH2 PO4, 0.2 g; and KCl, 0.2 g/l). Cells are finally suspended in PBS containing 1.0 mM calcium at a density of 2×10^6 cells/ml. Cells are incubated with and without test agent (in DMSO) (1% DMSO is without effect on arachidonic acid metabolism) for ten minutes at room temperature. Calcium ionophore A23187 (5 μM) is added and cells are incubated for seven minutes at 37° C. The reaction is stopped by chilling the tubes on ice for ten minutes. Cells are separated by centrifugation and the supernatant is stored at -20°. Aliquots (100 μl) are analyzed for LTB4 and PGF2α using radioimmunoassay kits as provided by the supplier.
(§4) Tables 1 and 2 contain biochemical data obtained from the whole cell assay described above as IC50 s which are calculated as the concentration of test compound causing 50% inhibition of LTB4 or PGF2α formation. Table 2 also provides the dose at which 40% of swelling is inhibited in the CFE-2 assay.

[2] = test system: Cyclooxygenase; assay: ARBC whole cell cyclooxygenase assay (PGF2α formation in RBL-1 cells, A23187-stimulated); assay type: cell-based, rat; parameters: key to ARBC, activity at the screening dose: Not active at the screening dose; conditions: for ARBC, activity at the screening dose: Table 2, screening dose
Protocol: as §1, §2, §3, §4

[3] = test system: Carrageenan-Induced Rat Foot Paw Edema; assay: Carrageenan-Induced Rat Foot Paw Edema-2 (CFE-2) Assay; assay type: in vivo; conditions: 5 h, Table 2, dosed one hour before carrageenan, edema at five hours, probit analysis, read-out: CFE, ID40 (dose at which 40% inhibition of swelling occurs)
Protocol: Carrageenan solution (1% w/v) is prepared by dissolving 100 mg carrageenan (Marine Colloidal Div., Springfield, N.J.) in 10 ml of sterile saline (0.9%) solution (Travenol). The solution is vortexed for 30 to 45 minutes. Animals are dosed with compound one hour before carrageenan challenge. Foot paw edema is induced by injecting 0.10 ml of the 1% carrageenan subcutaneously into the plantar portion of the right hind paw of each rat under light anesthesia. Initial foot paw volume is measured immediately following carrageenan challenge using mercury plethysmography (Buxco Electronics). Edema is measured five hours after carrageenan. The difference between the 5-hour and the initial paw volume is expressed as delta edema. The delta edema for each test group of animals is used to calculate the percent inhibition of edema achieved by the compound at the test dose compared with the vehicle control group. The data in Table 1 (the dose at which swelling is inhibited by the noted) is calculated by probit analysis for the dose at which 40% inhibition occurs.
as §4

[4] = Table 1, 16 μM, read-out: ARBL, % inhibition of LTB4 at 16 μM
[5] = read-out: ARBL, % inhibition at given concentration

Structure (SMILES): FC(F)(F)c1cccc(Nc2ccccc2-c2n[nH]c(=S)o2)c1 [Example 6, 5-[2-[[3-(Trifluoromethyl)phenyl]amino]phenyl]-1,3,4-oxadiazol-2(3H)-thione]
IC50 [1]: 770 nM | ED40 [3]: 8.5 mg/kg | IC50 ([2]; Table 2): 270 nM

Structure (SMILES): S=c1[nH]nc(Cc2ccccc2Nc2c(Cl)cccc2Cl)o1 [Example 7, 5-[[2-[(2,6-Dichlorophenyl)amino]phenyl]methyl]-1,3,4-oxadiazol-2(3H)-thion]
inhibition at 16 µM [1, 4]: 88% | ARBC, % inhibition of PGF2α at 16 μM ([2]; Table 1, 16 μM, class symbol N): N (Less than 40% inhibition at 16 μM)

Structure (SMILES): Cc1cccc(Nc2ccccc2-c2n[nH]c(=O)o2)c1C [Example 8, 5-[2-[(2,3-Dimethylphenyl)amino]phenyl]-1,3,4-oxadiazol-2(3H)-one]
ARBL, activity at the screening dose [1]: N | ARBC, activity at the screening dose ([2]; class symbol N): N

Structure (SMILES): Nc1nnc(-c2ccccc2Nc2cccc(C(F)(F)F)c2)s1 [Example 10, 5-[2-[(3-Trifluoromethylphenyl)amino]phenyl]-1,3,4-thiadiazol-2-amine]
IC50 [1]: 690 nM | IC50 ([2]; Table 2): 11000 nM

Structure (SMILES): FC(F)(F)c1cccc(Nc2ccccc2-c2n[nH]c(=S)s2)c1 [Example 12, 5-[2-[(3-Trifluoromethylphenyl)amino]phenyl]-1,3,4-thiadiazole-2(3H)-thione]
IC50 [1]: 870 nM | ED40 [3]: 4.7 mg/kg | IC50 ([2]; Table 2): 850 nM

Structure (SMILES): Nc1nnc(-c2ccccc2Nc2cccc(C(F)(F)F)c2)o1 [Example 16, 5-[2-[[3-(Trifluoromethyl)phenyl]amino]phenyl]-1,3,4-oxadiazol-2-amine]
IC50 [1]: 680 nM | IC50 ([2]; Table 2): 7120 nM

Structure (SMILES): CSc1nnc(-c2ccccc2Nc2cccc(C(F)(F)F)c2)o1 [Example 24, N-[2-[5-(Methylthio)-1,3,4-oxadiazol-2-yl]phenyl]-3-trifluoromethyl benzenamine]
ARBL, activity at the screening dose [1]: N | ARBC, % inhibition at given concentration ([2]; Table 2, @ 10 μM): 44%

Structure (SMILES): CS(=O)(=O)c1nnc(-c2ccccc2Nc2cccc(C(F)(F)F)c2)o1 [Example 25, N-[2-[5-(Methylsulfonyl)-1,3,4-oxadiazol-2-yl]phenyl]-3-trifluoromethyl benzenamine]
ARBL, activity at the screening dose [1]: N | ARBC, % inhibition at given concentration ([2]; Table 2, @ 10 μM): 48%

Structure (SMILES): N#CNc1nnc(-c2ccccc2Nc2cccc(C(F)(F)F)c2)o1 [Example 26, 5-[2-[[3-(Trifluoromethyl)phenyl]amino]phenyl]-1,3,4-oxadiazol-2-yl-cyanamide]
IC50 ([2]; Table 2): 1040 nM

Structure (SMILES): N=C(N)Nc1nnc(-c2ccccc2Nc2cccc(C(F)(F)F)c2)o1 [Example 27, 5-[2-[[3-(Trifluoromethyl)phenyl]amino]phenyl]-1,3,4-oxadiazol-2-yl-guanidine hydrochloride]
inhibition at 10 µM [1, 5]: 100% | ARBC, activity at the screening dose ([2]; class symbol N): N

Structure (SMILES): CSc1nnc(-c2ccccc2Nc2cccc(C(F)(F)F)c2)s1 [Example 30, 3-Trifluoromethyl-N-[2-[5-(methylthio)-1,3,4-thiadiazol-2-yl]phenyl]benzenamine]
inhibition at 10 µM [1, 5]: 66% | ARBC, % inhibition at given concentration ([2]; Table 2, @ 10 μM): 44%

Structure (SMILES): C[S+]([O-])c1nnc(-c2ccccc2Nc2cccc(C(F)(F)F)c2)s1 (stereo not shown) [Example 31]
inhibition at 10 µM [1, 5]: 100% | ARBC, % inhibition at given concentration ([2]; Table 2, @ 10 μM): 51%

More lines, main results first:

ARBL, activity at the screening dose [1]: N
Structure (SMILES): Cc1ccc(Cl)c(Nc2ccccc2-c2n[nH]c(=O)o2)c1Cl [Example 1]
ARBC, activity at the screening dose ([2]; class symbol N): N

inhibition at 16 µM [1, 4]: 97% | IC50 [1]: 740 nM | IC50 ([2]; Table 1, footnote c): 700 nM | IC50 ([2]; Table 2): 700 nM
Structure (SMILES): Cc1ccc(Cl)c(Nc2ccccc2-c2n[nH]c(=S)o2)c1Cl [Example 2, 5-[2-[(2,6-Dichloro-3-methylphenyl)amino]phenyl]-1,3,4-oxadiazol-2(3H)-thione]

IC50 [1]: 600 nM | IC50 ([2]; Table 1, footnote c): 6100 nM | IC50 ([2]; Table 2): 6100 nM
Structure (SMILES): Cc1ccc(Cl)c(Nc2ccccc2-c2nnc(N)s2)c1Cl [Example 4, 5-[2-[(2,6-Dichloro-3-methylphenyl)amino]phenyl]-1,3,4-thiadiazol-2-amine]

inhibition at 16 µM ([1]; Table 2, @ 16 μM, read-out: ARBL, % inhibition at given concentration): 100%
Structure (SMILES): Cc1ccc(Cl)c(Nc2ccccc2-c2n[nH]c(=S)s2)c1Cl [Example 5, 5-[2-[(2,6-Dichloro-3-methylphenyl)amino]phenyl]-1,3,4-thiadiazol-2(3H)-thione]
ARBC, % inhibition at given concentration ([2]; Table 2, @ 16 μM): 47%

IC50 [1]: 1000 nM
Structure (SMILES): Cc1cccc(Nc2ccccc2-c2n[nH]c(=S)o2)c1C [Example 9, 5-[2-[(2,3-Dimethylphenyl)amino]phenyl]-1,3,4-oxadiazole-2(3H)-thione]

inhibition at 10 µM [1, 5]: 45%
Structure (SMILES): Cc1ccc(Cl)c(Nc2ccccc2-c2nnc(N)o2)c1Cl [Example 17, 5-[2-[[2,6-Dichloro-3-methylphenyl]amino]phenyl]-1,3,4-oxadiazol-2-amine]
ARBC, activity at the screening dose ([2]; class symbol N): N

ARBL, activity at the screening dose [1]: N
Structure (SMILES): Cc1ccc(Cl)c(Nc2ccccc2-c2nnco2)c1Cl [Example 18, 2,6-Dichloro-3-methyl-N-[2-(1,3,4-oxadiazol-2-yl)phenyl]benzenamine]
ARBC, activity at the screening dose ([2]; class symbol N): N

ARBL, activity at the screening dose [1]: N
Structure (SMILES): CSc1nnc(-c2ccccc2Nc2c(Cl)ccc(C)c2Cl)o1 [Example 19, 2,6-Dichloro-3-methyl-N-[2-[5-(methylthio)-1,3,4-oxadiazol-2-yl]phenyl]benzenamine]
ARBC, % inhibition at given concentration ([2]; Table 2, @ 10 μM): 55%

IC50 [1]: 6320 nM | IC50 ([2]; Table 2): 3000 nM
Structure (SMILES): Cc1ccc(Cl)c(Nc2ccccc2-c2nnc(S(C)(=O)=O)o2)c1Cl [Example 20, 2,6-Dichloro-3-methyl-N-[2-[5-(methylsulfonyl)-1,3,4-oxadiazol-2-yl]phenyl]benzenamine]

IC50 [1]: 910 nM | IC50 ([2]; Table 2): 1790 nM
Structure (SMILES): Cc1ccc(Cl)c(Nc2ccccc2-c2nnc([S+](C)[O-])o2)c1Cl (stereo not shown) [Example 21, 2,6-Dichloro-3-methyl-N-[2-[5-(methylsulfinyl)-1,3,4-oxadiazol-2-yl]phenyl]benzenamine]

inhibition at 10 µM [1, 5]: 46%
Structure (SMILES): Cc1ccc(Cl)c(Nc2ccccc2-c2nnc(NC(=N)N)o2)c1Cl [Example 22, 5-[2-[(2,6-dichloro-3-methylphenyl)amino]phenyl]-1,3,4-oxadiazol-2-yl-guanidine monohydrochloride]
ARBC, activity at the screening dose ([2]; class symbol N): N

IC50 [1]: 890 nM | IC50 ([2]; Table 2): 250 nM
Structure (SMILES): Cc1ccc(Cl)c(Nc2ccccc2-c2nnc(NC#N)o2)c1Cl [Example 23, 5-[2-[(2,6-Dichloro-3-methylphenyl)amino]phenyl]-1,3,4-oxadiazol-2-yl-cyanamide]

ARBL, activity at the screening dose [1]: N
Structure (SMILES): CSc1nnc(-c2ccccc2Nc2c(Cl)ccc(C)c2Cl)s1 [Example 28, 2,6-Dichloro-3-methyl-N-[2-[5-(methylthio)-1,3,4-thiadiazol-2-yl]phenyl]benzenamine]
ARBC, % inhibition at given concentration ([2]; Table 2, @ 10 μM): 60%

IC50 [1]: 3300 nM | IC50 ([2]; Table 2): 8480 nM
Structure (SMILES): Cc1ccc(Cl)c(Nc2ccccc2-c2nnc([S+](C)[O-])s2)c1Cl (stereo not shown) [Example 29, 2,6-Dichloro-3-methyl-N-[2-[5-(methylsulfinyl)-1,3,4-thiadiazol-2-yl]phenyl]benzenamine]
